# Source: patent US20100047844A1, “DIAGNOSTIC MARKER FOR FABRY DISEASE” (Academisch Ziekenhuis bij de Universiteit van Amsterdam, priority 2006, published 2010)
# “Also recorded” adds a separate entry of the source.
# How the values were obtained:
# alpha-galactosidase B = target: T1, alpha-galactosidase B (Homo sapiens, UniProt P17050); assay: Inhibition of alpha-galactosidase B by lyso-CTH; type: biochemical
# T1 sequence (P17050 18-411): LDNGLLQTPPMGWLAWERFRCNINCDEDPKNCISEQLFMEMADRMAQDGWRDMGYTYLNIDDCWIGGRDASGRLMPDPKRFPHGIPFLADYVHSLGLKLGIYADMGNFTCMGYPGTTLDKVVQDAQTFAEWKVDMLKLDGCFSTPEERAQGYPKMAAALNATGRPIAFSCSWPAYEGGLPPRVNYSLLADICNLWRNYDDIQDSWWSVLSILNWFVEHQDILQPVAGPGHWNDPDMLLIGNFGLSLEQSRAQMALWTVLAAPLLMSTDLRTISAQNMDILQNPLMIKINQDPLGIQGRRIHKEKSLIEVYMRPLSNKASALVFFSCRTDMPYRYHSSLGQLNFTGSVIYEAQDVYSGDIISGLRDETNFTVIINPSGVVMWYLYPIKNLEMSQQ
# [1] = Partitioning of lyso-CTH in extraction from plasma samples; type: physicochemical
# Experimental: An optimal extraction procedure for lyso-CTH from plasma samples was established. A double extraction was carried out, first a Bligh and Dyer extraction followed by butanol extraction.
# SMC-41 cell line = assay: In vitro toxicity: 3H thymidine incorporation and proliferation in SMC-41 cell line; type: cell-based; conditions: lyso-CTH 0.065-0.65 μM, as found in plasma of Fabry patients
# Experimental: The toxic effect of lyso-CTH was determined in vitro in SMC-41 cell line. ^3H thymidine incorporation (per 24 h) was determined as a function of lyso-CTH concentration.
# alpha-galactosidase A = target: T2, alpha-galactosidase A (Homo sapiens, UniProt P06280); assay: Inhibition of alpha-galactosidase A by lyso-CTH; type: biochemical
# T2 sequence (P06280 32-429): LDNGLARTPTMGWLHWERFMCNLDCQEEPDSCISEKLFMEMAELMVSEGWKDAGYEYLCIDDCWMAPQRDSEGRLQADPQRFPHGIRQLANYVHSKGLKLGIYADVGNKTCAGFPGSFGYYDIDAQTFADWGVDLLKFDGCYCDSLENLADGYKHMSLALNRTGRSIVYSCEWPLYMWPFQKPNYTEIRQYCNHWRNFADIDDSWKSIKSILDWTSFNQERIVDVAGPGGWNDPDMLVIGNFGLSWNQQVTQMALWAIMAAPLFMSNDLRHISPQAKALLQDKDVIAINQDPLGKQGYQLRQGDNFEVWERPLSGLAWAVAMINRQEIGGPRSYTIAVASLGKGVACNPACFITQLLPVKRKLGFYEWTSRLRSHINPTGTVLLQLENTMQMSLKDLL
smiles,measurement,setting,value
"CCCCCCCCCCCCC/C=C/[C@@H](O)[C@@H](N)CO[C@@H]1O[C@H](CO)[C@@H](O[C@@H]2O[C@H](CO)[C@H](O[C@H]3O[C@H](CO)[C@H](O)[C@H](O)[C@H]3O)[C@H](O)[C@H]2O)[C@H](O)[C@H]1O [lyso-CTH, lyso-ceramide trihexosamide]",inhibition of alpha-galactosidase B,alpha-galactosidase B,potent inhibitor; also recorded: inhibits
same,"Partitioning of lyso-CTH (% of total), lower phase",[1]; Bligh and Dyer extraction,10 % of total
same,"Partitioning of lyso-CTH (% of total), upper phase",[1]; Bligh and Dyer extraction,90 % of total
same,"Partitioning of lyso-CTH (% of total), lower phase",[1]; butanol/water extraction,2 % of total
same,"Partitioning of lyso-CTH (% of total), upper phase",[1]; butanol/water extraction,99 % of total
same,3H thymidine incorporation (per 24 h),SMC-41 cell line,increased isotope incorporation
same,smooth muscle cell proliferation,SMC-41 cell line,promote in vitro smooth muscle cell proliferation; also recorded: increased proliferation
same,inhibition of alpha-galactosidase A,alpha-galactosidase A,potent inhibitor; also recorded: inhibits
